Legend:
[1] = test system: glucose uptake by individual tissues; assay: In vivo tissue glucose uptake with 14C 2-deoxyglucose during clamp; design: species or system Zucker rats; conditions: for Decrease in glucose uptake by adipose tissue: epididymal fat, normalized to wet weight
Experimental: In vivo glucose uptake by individual tissues was determined using [^14 C]-labeled 2-deoxyglucose (2-DG), as described previously in, for example, the Lang references cited above. Tissue-specific glucose uptake was determined between 140 and 180 min after the start of the euglycemic hyperinsulinemic clamp. A tracer amount of 2-DG (8 μCi/rat; Amersham, Arlington Heights, Ill.) was injected intravenously, and tissues obtained 40 min later. Prior to tissue collection, serial arterial blood samples (0.2 ml) were withdrawn into heparinized syringes, plasma deproteinized with perchloric acid and ^14 C-radioactivity determined. Thereafter, animals were anesthetized with sodium pentobarbital, exsanguinated, and selected tissues were excised to determine the intracellular accumulation of phosphorylated 2-DG.
During the hyperinsulinemic clamp, blood glucose concentrations were determined at 10-min intervals using the YSI glucose analyzer (Yellow Springs, Ohio). Glucose specific activity was determined on neutralized supernatants of deproteinized plasma as taught by Lang, Am. J. Physiol, 263 (Endocrinol. Metab. 26): E703-D711 (1992). Tissue samples (600-900 mg wet wt) were immersed in ice-cold 0.5 N PCA, homogenized, and centrifuged. The concentration of phosphorylated 2-DG in tissues was calculated as the difference between total ^14 C-radioactivity of the neutral extract and the ^14 C-radioactivity remaining after Somogyi treatment as described in detail by Lang CH, Dobrescu C, and Meszaros K., Metabolism 39:1096-1107 (1990).
Rates of whole body glucose appearance (Ra) and disappearance (Rd) are calculated using the steady-state equations of Steele, Ann. NY Acad. Sci., 82:420-430 (1959). The glucose metabolic clearance rate (MCR) is calculated by dividing the glucose Rd by the prevailing glucose concentration. Since the prevailing insulin levels during the hyperinsulinemic clamp completely suppress endogenous glucose production, the rate of whole body glucose disposal equals the exogenous glucose infusion rate. The increment in insulin-stimulated glucose uptake (IMGU) for each animals is calculated by subtracting the basal endogenous glucose Ra from the measured rate of glucose disposal determined during the last 40 min of the clamp. In vivo glucose uptake for each tissue examined is calculated based on the accumulation of phosphorylated 2-DG by a respective tissue, the integrated 2-DG:glucose ratio in the plasma during the 40-min labeling period, and the lumped constant as described by Lang, Endocrinology, 128:645-653 (1991).

[2] = biological target: T1, human A2A adenosine receptor (Homo sapiens, UniProt P29274); assay: Binding constants against cloned and expressed human adenosine receptor subtypes (A2A); conditions: read-out: Binding constant (KD) A2A
T1 construct: expressed in transfected cells

rat A3 receptor = biological target: T2, rat A3 receptor (Rattus norvegicus, UniProt P28647); conditions: rat versus human A3; cited from earlier work
T2 sequence (P28647 1-320): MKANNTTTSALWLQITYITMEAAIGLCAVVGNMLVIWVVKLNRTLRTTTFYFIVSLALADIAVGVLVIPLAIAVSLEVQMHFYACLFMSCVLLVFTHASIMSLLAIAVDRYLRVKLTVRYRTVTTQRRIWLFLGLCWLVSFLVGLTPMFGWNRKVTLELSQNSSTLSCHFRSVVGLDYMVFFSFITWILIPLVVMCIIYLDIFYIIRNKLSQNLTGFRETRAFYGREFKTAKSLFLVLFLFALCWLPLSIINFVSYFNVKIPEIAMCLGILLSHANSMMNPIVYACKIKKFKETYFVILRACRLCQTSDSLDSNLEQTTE

[3] = Basal postabsorptive glucose kinetics; assay type: in vivo, Zucker rats; conditions: for Glucose Concentration / Glucose MCR / Glucose Ra: basal postabsorptive, treated 1 wk
Experimental: In this example, 6-8 week old lean and obese female animals were used. Each group received either vehicle or vehicle plus 1,3-dipropyl-8-(p-acrylic)phenylxanthine (BWA1433) (12 mg/kg every 12 h) for one week prior to the start of the experimental protocol, as described by Xu, et al., Am. […] The vehicle in this case was 10 mg/ml methyl cellulose in H2 O. The final dose of BWA1433 or vehicle was administered approximately 1 h prior to the start of the experimental protocol.
On the day prior to the start of the experimental protocol, animals were anesthetized with an intramuscular injection of ketamine and xylazine (90 and 9 mg/kg body weight, respectively), and sterile surgery was performed to implant catheters in the carotid artery and jugular vein according to the methods taught by Lang et al., Endocrinology, 130: 43-52 (1992). After surgery, animals were housed in individual cages and provided water ad libitum. Animals were fasted overnight.
The following morning, a primed, constant intravenous infusion of [3-^3 H]glucose (high-performance liquid chromatography purified; DuPont-New England Nuclear, Boston, Mass.) was initiated to determine basal glucose kinetics. A 7-μCi bolus injection of labeled glucose was administered followed by a continuous infusion at a rate of 0.083 μCi/min for the next 2 h. Arterial blood samples were collected at 100 and 120 min (0.3 ml each) after the start of the tracer infusion. Blood was collected in heparinized syringes, centrifuged, and the plasma glucose concentration and glucose specific activity were determined on each sample.
Rates of whole body glucose appearance (Ra) and disappearance (Rd) are calculated using the steady-state equations of Steele, Ann. […] The glucose metabolic clearance rate (MCR) is calculated by dividing the glucose Rd by the prevailing glucose concentration.

[4] = obese rats, one week treatment, clamp

T1 sequence (P29274 whole entry): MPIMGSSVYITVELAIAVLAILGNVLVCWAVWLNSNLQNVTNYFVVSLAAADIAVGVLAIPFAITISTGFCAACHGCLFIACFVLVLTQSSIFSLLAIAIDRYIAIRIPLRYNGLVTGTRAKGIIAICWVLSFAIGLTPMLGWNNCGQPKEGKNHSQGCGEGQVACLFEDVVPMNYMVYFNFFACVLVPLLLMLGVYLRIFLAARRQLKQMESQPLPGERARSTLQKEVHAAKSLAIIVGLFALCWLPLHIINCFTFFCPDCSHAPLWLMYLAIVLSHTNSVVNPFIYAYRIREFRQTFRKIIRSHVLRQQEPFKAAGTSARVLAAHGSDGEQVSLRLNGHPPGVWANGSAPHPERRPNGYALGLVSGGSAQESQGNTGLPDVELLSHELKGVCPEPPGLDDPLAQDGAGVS

## CCCn1c(=O)c2[nH]c(-c3ccc(C=CC(=O)O)cc3)nc2n(CCC)c1=O [BWA1433, 1,3-dipropyl-8-(p-acrylic)phenylxanthine]
[1]; lean animals
  Glucose uptake under hyperinsulinemic conditions in heart: unaffected
  Glucose uptake under hyperinsulinemic conditions in liver: unaffected
[1]; lean rats
  Decrease in glucose uptake by gastrocnemius: 16%
  Decrease in glucose uptake by soleus: 12%
  Decrease in glucose uptake by adipose tissue: 48%
[1]; obese rats
  Change in glucose uptake in heart: no significant change
  Change in glucose uptake in liver: no significant change
  Decrease in glucose uptake by adipose tissue: 54%
[1]; [4]
  Increase in glucose uptake in gastrocnemius compared to vehicle-treated obese rats: 44%
  Increase in glucose uptake in soleus compared to vehicle-treated obese rats: 47%
[1]; on the basis of intracellular aqueous volume, both groups (lean, obese)
  Reduction in glucose uptake by fat: approximately 50%
[2]
  Kd: 190 nM
Rat A3 receptor
  KD of rat A3 receptor relative to human A3 receptor: much higher
[3]; basal conditions, either group (lean, obese)
  Alterations in any parameter of glucose metabolism: did not produce detectable alterations
[3]; lean rats
  Glucose Concentration: 5.1 ± 0.2 mM
  Glucose MCR: 7.1 ± 0.8 ml · min^-1 .multidot
  Glucose Ra: 36.8 ± 2.9 μmol^-1 · min .multid
[3]; obese rats
  Glucose Concentration: 4.5 ± 0.2 mM
  Glucose MCR: 8.3 ± 0.8 ml · min^-1 .multidot
  Glucose Ra: 37.5 ± 4.8 μmol^-1 · min .multid

From patent US6060481A, “Method for improving insulin sensitivity using an adenosine receptor antagonist” (priority 1999, dated 2000)
